pIC50: −log10 of the molar value.
Molecular target: human ALK5 (Homo sapiens (Human), UniProt P36897)
Experiment: ADP-GLO Kinases assay, inhibitory activity on ALK5
Type: biochemical
Details: not given

human ALK5, sequence (P36897 80-503 limits assumed): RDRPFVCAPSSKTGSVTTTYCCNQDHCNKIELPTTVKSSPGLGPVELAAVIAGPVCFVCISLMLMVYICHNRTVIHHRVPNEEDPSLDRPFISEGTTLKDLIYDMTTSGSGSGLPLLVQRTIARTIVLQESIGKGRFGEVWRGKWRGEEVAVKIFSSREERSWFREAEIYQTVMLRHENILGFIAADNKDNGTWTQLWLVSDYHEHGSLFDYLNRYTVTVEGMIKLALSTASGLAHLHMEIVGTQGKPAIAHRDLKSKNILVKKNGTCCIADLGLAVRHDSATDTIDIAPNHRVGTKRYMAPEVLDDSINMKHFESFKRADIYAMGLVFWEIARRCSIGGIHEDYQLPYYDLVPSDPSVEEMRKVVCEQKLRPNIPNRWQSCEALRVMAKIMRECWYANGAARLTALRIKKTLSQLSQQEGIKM

Compound	pIC50
Cc1nnc(-c2cc(Cl)ccc2F)cc1Nc1ccnc2cc(OC(=O)N3CC4CC3CN4C)ccc12 (centres unmarked) [Example 128, 4-{[6-(5-Chloro-2-Fluorophenyl)-3-Methylpyridazin-4-Yl]Amino}Quinolin-7-Yl 5-Methyl-2,5-Diazabicyclo[2.2.1]Heptane-2-Carboxylate]	> 9.00
CN1CCN(C(=O)Oc2ccc3c(Nc4cnnc(-c5cc(Cl)ccc5F)c4)ccnc3c2)CC1 [Example 28, 4-{[6-(5-Chloro-2-Fluorophenyl)Pyridazin-4-Yl]Amino}Quinolin-7-Yl 4-Methylpiperazine-1-Carboxylate]	8.30 to 9.00

Same assay, conditions: purified recombinant human ALK5 2.6 nM, TGFβ1 peptide substrate, 25° C, 150 min incubation, ADP-Glo detection; read-out: ALK5 IC50

pIC50	Compound
> 9.00	Cc1nnc(-c2cc(Cl)ccc2F)cc1Nc1ccnc(NC(=O)CCN2C[C@@H]3C[C@H]2CN3C)c1 [Example 111, N-(4-{[6-(5-Chloro-2-Fluorophenyl)-3-Methylpyridazin-4-Yl]Amino}Pyridin-2-Yl)-3-[(1S,4S)-5-Methyl-2,5-Diazabicyclo[2.2.1]Heptan-2-Yl]Propanamide]
> 9.00	COC(=O)CC1CN(CCC(=O)Nc2cc(Nc3cc(-c4cc(Cl)ccc4F)nnc3C)ccn2)CCN1 (centres unmarked) [Example 97, Methyl 2-(4-{2-[(4-{[6-(5-Chloro-2-Fluorophenyl)-3-Methylpyridazin-4-Yl]Amino}Pyridin-2-Yl)Carbamoyl]Ethyl}Piperazin-2-Yl)Acetate]
> 9.00	COC(=O)CN1CCN(CC(=O)Nc2cc(Nc3cc(-c4cc(Cl)ccc4F)nnc3C)ccn2)CC1 [Example 96, methyl 2-(4-{[(4-{[6-(5-chloro-2-fluorophenyl)-3-methylpyridazin-4-yl]amino}pyridin-2-yl)carbamoyl]methyl}piperazin-1-yl)acetate]
> 9.00	CN1CCCN(CCCOc2ccc3c(Nc4cnnc(-c5cc(Cl)ccc5F)c4)ccnc3c2)C1 [Example 52, N-[6-(5-Chloro-2-Fluorophenyl)Pyridazin-4-Yl]-7-[3-(3-Methyl-1,3-Diazinan-1-Yl)Propoxy]Quinolin-4-Amine]
> 9.00	CNCCNCCC(=O)Nc1cc(Nc2cc(-c3cc(Cl)ccc3F)nnc2C)ccn1 [Example 93, N-(4-{[6-(5-Chloro-2-Fluorophenyl)-3-Methylpyridazin-4-Yl]Amino}Pyridin-2-Yl)-3-{[2-(Methylamino)Ethyl]Amino}Propanamide]
> 9.00	Cc1nnc(-c2cc(Cl)ccc2F)cc1Nc1ccnc(NC(=O)CCN2CCNC(CC(=O)O)C2)c1 (centres unmarked) [Example 116, 2-(4-{2-[(4-{[6-(5-chloro-2-fluorophenyl)-3-methylpyridazin-4-yl]amino}pyridin-2-yl)carbamoyl]ethyl}piperazin-2-yl)acetic acid]
> 9.00	COC(=O)[C@H]1CC[C@H](c2nnc(-c3cc(Cl)ccc3F)cc2Nc2ccnc(NC(=O)CCN3CCN(C)CC3)c2)CC1 [Example 189, methyl trans-4-(6-(5-chloro-2-fluorophenyl)-4-((2-(3-(4-methylpiperazin-1-yl)propanamido)pyridin-4-yl)amino)pyridazin-3-yl)cyclohexane-1-carboxylate]
> 9.00	Cc1nnc(-c2cc(Cl)ccc2F)cc1Nc1ccnc(NC(=O)CCN2CCOCC2)c1 [Example 78, N-(4-{[6-(5-Chloro-2-Fluorophenyl)-3-Methylpyridazin-4-Yl]Amino}Pyridin-2-Yl)-3-(Morpholin-4-Yl)Propanamide]
> 9.00	COC(=O)CC1CNCCN1CCC(=O)Nc1cc(Nc2cc(-c3cc(Cl)ccc3F)nnc2C)ccn1 (centres unmarked) [Example 102, Methyl 2-(1-{2-[(4-{[6-(5-Chloro-2-Fluorophenyl)-3-Methylpyridazin-4-Yl]Amino}Pyridin-2-Yl)Carbamoyl]Ethyl}Piperazin-2-Yl)Acetate]
> 9.00	COC(=O)CCN1CCN(CCOc2ccc3c(Nc4cnnc(-c5cc(Cl)ccc5F)c4)ccnc3c2)CC1 [Example 60, Methyl 3-(4-{2-[(4-{[6-(5-Chloro-2-Fluorophenyl)Pyridazin-4-Yl]Amino}Quinolin-7-Yl)Oxy]Ethyl}Piperazin-1-Yl)Propanoate]
> 9.00	CN1C[C@@H]2CN(CCOc3ccc4c(Nc5cnnc(-c6cc(Cl)ccc6F)c5)ccnc4c3)C[C@@H]2C1 [Example 55, Cis N-[6-(5-Chloro-2-Fluorophenyl)Pyridazin-4-Yl]-7-(2-{5-Methyl-Octahydropyrrolo[3,4-c]Pyrrol-2-Yl}Ethoxy)Quinolin-4-Amine]
> 9.00	Cc1nnc(-c2cc(Cl)ccc2F)cc1Nc1ccnc(NC(=O)CCCN2CCCNCC2)c1 [Example 158, N-(4-{[6-(5-Chloro-2-Fluorophenyl)-3-Methylpyridazin-4-Yl]Amino}Pyridin-2-Yl)-4-(1,4-Diazepan-1-Yl)Butanamide]

Second part, the compound before the results:

Compound	pIC50
CC(=O)N1CCN(CCC(=O)Nc2cc(Nc3cnnc(-c4cc(Cl)ccc4F)c3)ccn2)CC1 [Example 31, 3-(4-Acetylpiperazin-1-Yl)-N-(4-{[6-(5-Chloro-2-Fluorophenyl)Pyridazin-4-Yl]Amino}Pyridin-2-Yl)Propanamide]	> 9.00
CS(=O)(=O)N1CCN(CCOc2ccc3c(Nc4cnnc(-c5cc(Cl)ccc5F)c4)ccnc3c2)CC1 [Example 36, N-[6-(5-Chloro-2-Fluorophenyl)Pyridazin-4-Yl]-7-[2-(4-Methanesulfonylpiperazin-1-Yl)Ethoxy]Quinolin-4-Amine]	> 9.00
CN1CCN(CCC(=O)Nc2cc(Nc3cnnc(-c4cc(Cl)ccc4F)c3)ccn2)CC1=O [Example 24, N-(4-{[6-(5-Chloro-2-Fluorophenyl)Pyridazin-4-Yl]Amino}Pyridin-2-Yl)-3-(4-Methyl-3-Oxopiperazin-1-Yl)Propanamide]	8.30 to 9.00
Cc1nnc(-c2cc(Cl)ccc2F)cc1Nc1ccnc2cc(OC(=O)N3CC(N4CCCC4)C3)ccc12 [Example 152, 4-{[6-(5-Chloro-2-Fluorophenyl)-3-Methylpyridazin-4-Yl]Amino}Quinolin-7-Yl 3-(Pyrrolidin-1-Yl)Azetidine-1-Carboxylate]	> 9.00
CN1CCN(CCC(=O)Nc2cc(Nc3cnnc(-c4cc(Cl)ccc4F)c3)ccn2)C(=O)C1 [Example 22, N-(4-{[6-(5-Chloro-2-Fluorophenyl)Pyridazin-4-Yl]Amino}Pyridin-2-Yl)-3-(4-Methyl-2-Oxopiperazin-1-Yl)Propanamide]	8.30 to 9.00
Cc1nnc(-c2cc(Cl)ccc2F)cc1Nc1ccnc2[nH]c(C(=O)NCCN3CCN(C)CC3)cc12 [Example 49, 4-{[6-(5-Chloro-2-Fluorophenyl)-3-Methylpyridazin-4-Yl]Amino}-N-[2-(4-Methylpiperazin-1-Yl)Ethyl]-M-Pyrrolo[2,3-b]Pyridine-2-Carboxamide]	> 9.00
CN1CCN(C(=O)COc2ccc3c(Nc4cnnc(-c5cc(Cl)ccc5F)c4)ccnc3c2)CC1 [Example 39, 2-[(4-{[6-(5-Chloro-2-Fluorophenyl)Pyridazin-4-Yl]Amino}Quinolin-7-Yl)Oxy]-1-(4-Methylpiperazin-1-Yl)Ethan-1-One]	8.30 to 9.00
O=C(CCCN1CCOCC1)Nc1cc(Nc2cnnc(-c3cc(Cl)ccc3F)c2)ccn1 [Example 8, N-(4-{[6-(5-Chloro-2-Fluorophenyl)Pyridazin-4-Yl]Amino}Pyridin-2-Yl)-4-(Morpholin-4-Yl)Butanamide]	> 9.00
CN1CCC2(CC1)CCN(C(=O)Oc1ccc3c(Nc4cnnc(-c5cc(Cl)ccc5F)c4)ccnc3c1)C2 [Example 118, 4-{[6-(5-Chloro-2-Fluorophenyl)Pyridazin-4-Yl]Amino}Quinolin-7-Yl 8-Methyl-2,8-Diazaspiro[4.5]Decane-2-Carboxylate]	> 9.00
